Reference: ChEMBL document CHEMBL1201861, “Genomics of Drug Sensitity in Cancer screening data, Wellcome Trust Sanger Institute”

Legend:
Assay in all cases: cells
IA-LM = assay type: functional, cell-based, Homo sapiens; settings: Homo sapiens, IA-LM;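 further: cell viability assay measuring growth inhibition of human IA-LM cells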
Description: SANGER: Inhibition of human IA-LM cell growth in a cell viability assay.

Ramos-2G6-4C10 = assay type: functional, cell-based, Homo sapiens; settings: Homo sapiens, Ramos-2G6-4C10;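 further: growth inhibition of the cell line, measured by a cell viability read-out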
Description: SANGER: Inhibition of human Ramos-2G6-4C10 cell growth in a cell viability assay.

RS4-11 = assay type: functional, cell-based, Homo sapiens; settings: Homo sapiens, RS4-11;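 further: growth inhibition of RS4-11 cells, read out by a cell viability assay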
Description: SANGER: Inhibition of human RS4-11 cell growth in a cell viability assay.

OCUB-M = assay type: functional, cell-based, Homo sapiens; settings: Homo sapiens, OCUB-M;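 further: growth inhibition of the cancer cell line, read out through a cell viability assay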
Description: SANGER: Inhibition of human OCUB-M cell growth in a cell viability assay.

EW-3 = assay type: functional, cell-based, Homo sapiens; settings: Homo sapiens, EW-3;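 further: cell viability assay read-out, IC50 reflects inhibition of growth of the EW-3 cells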
Description: SANGER: Inhibition of human EW-3 cell growth in a cell viability assay.

DU-4475 = assay type: functional, cell-based, Homo sapiens; settings: Homo sapiens, DU-4475
Description: SANGER: Inhibition of human DU-4475 cell growth in a cell viability assay.

DSH1 = assay type: functional, cell-based, Homo sapiens; settings: Homo sapiens, DSH1;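 further: growth inhibition of human DSH1 cells, measured with a cell viability readout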
Description: SANGER: Inhibition of human DSH1 cell growth in a cell viability assay.

TE-6 = assay type: functional, cell-based, Homo sapiens; settings: Homo sapiens, TE-6;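 further: growth inhibition of TE-6 cells, read out with a cell viability assay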
Description: SANGER: Inhibition of human TE-6 cell growth in a cell viability assay.

MPP-89 = assay type: functional, cell-based, Homo sapiens; settings: Homo sapiens, MPP-89;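 further: growth inhibition of human MPP-89 cells, read out with a cell viability assay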
Description: SANGER: Inhibition of human MPP-89 cell growth in a cell viability assay.

NCI-H1395 = assay type: functional, cell-based, Homo sapiens; settings: Homo sapiens, NCI-H1395;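 further: cell viability assay read-out quantifying reduced proliferation of human NCI-H1395 cells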
Description: SANGER: Inhibition of human NCI-H1395 cell growth in a cell viability assay.

IST-SL1 = assay type: functional, cell-based, Homo sapiens; settings: Homo sapiens, IST-SL1;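 further: growth inhibition of human IST-SL1 cells, read out with a cell viability assay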
Description: SANGER: Inhibition of human IST-SL1 cell growth in a cell viability assay.

EM-2 = assay type: functional, cell-based, Homo sapiens; settings: Homo sapiens, EM-2;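 further: growth inhibition of EM-2 cells, read out with a cell viability assay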
Description: SANGER: Inhibition of human EM-2 cell growth in a cell viability assay.

SNU-C2B = assay type: functional, cell-based, Homo sapiens; settings: Homo sapiens, SNU-C2B;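 further: cell viability readout used to measure compound-driven suppression of SNU-C2B cell proliferation, IC50 marking half-maximal growth inhibition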
Description: SANGER: Inhibition of human SNU-C2B cell growth in a cell viability assay.

NCI-H526 = assay type: functional, cell-based, Homo sapiens; settings: Homo sapiens, NCI-H526;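 further: growth inhibition of the human NCI-H526 cell line, measured by a cell viability assay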
Description: SANGER: Inhibition of human NCI-H526 cell growth in a cell viability assay.

C2BBe1 = assay type: functional, cell-based, Homo sapiens; settings: Homo sapiens, C2BBe1;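 further: growth inhibition of C2BBe1 cells, read out through a viability assay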
Description: SANGER: Inhibition of human C2BBe1 cell growth in a cell viability assay.

NCI-H1304 = assay type: functional, cell-based, Homo sapiens; settings: Homo sapiens, NCI-H1304;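 further: growth inhibition of the cancer cell line, measured in a cell viability assay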
Description: SANGER: Inhibition of human NCI-H1304 cell growth in a cell viability assay.

U-87 MG = assay type: functional, cell-based, Homo sapiens, U-87MG ATCC; settings: Homo sapiens, U-87 MG;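 further: growth inhibition of the cells measured with a viability assay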
Description: SANGER: Inhibition of human U-87-MG cell growth in a cell viability assay.

TE-11 = assay type: functional, cell-based, Homo sapiens; settings: Homo sapiens, TE-11;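 further: growth inhibition of human TE-11 cells, read out by a cell viability assay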
Description: SANGER: Inhibition of human TE-11 cell growth in a cell viability assay.

MMAC-SF = assay type: functional, cell-based, Homo sapiens; settings: Homo sapiens, MMAC-SF;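 further: growth inhibition of human MMAC-SF cells, read out with a cell viability assay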
Description: SANGER: Inhibition of human MMAC-SF cell growth in a cell viability assay.

RCC10RGB = assay type: functional, cell-based, Homo sapiens; settings: Homo sapiens, RCC10RGB;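 further: growth inhibition of human RCC10RGB cells, read out by a cell viability assay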
Description: SANGER: Inhibition of human RCC10RGB cell growth in a cell viability assay.

NCI-H1355 = assay type: functional, cell-based, Homo sapiens; settings: Homo sapiens, NCI-H1355;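 further: growth inhibition of human NCI-H1355 cells, read out by a cell viability assay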
Description: SANGER: Inhibition of human NCI-H1355 cell growth in a cell viability assay.

CAS-1 = assay type: functional, cell-based, Homo sapiens; settings: Homo sapiens, CAS-1;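 further: growth inhibition of CAS-1 cells, measured with a cell viability assay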
Description: SANGER: Inhibition of human CAS-1 cell growth in a cell viability assay.

U-266 = assay type: functional, cell-based, Homo sapiens; settings: Homo sapiens, U-266
Description: SANGER: Inhibition of human U-266 cell growth in a cell viability assay.

D283 Med = assay type: functional, cell-based, Homo sapiens; settings: Homo sapiens, D283 Med
Description: SANGER: Inhibition of human D-283MED cell growth in a cell viability assay.

SK-MEL-1 = assay type: functional, cell-based, Homo sapiens; settings: Homo sapiens, SK-MEL-1;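 further: growth inhibition of human SK-MEL-1 cells, read out by a cell viability assay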
Description: SANGER: Inhibition of human SK-MEL-1 cell growth in a cell viability assay.

MSTO-211H = assay type: functional, cell-based, Homo sapiens; settings: Homo sapiens, MSTO-211H
Description: SANGER: Inhibition of human MSTO-211H cell growth in a cell viability assay.

GB-1 = assay type: functional, cell-based, Homo sapiens; settings: Homo sapiens, GB-1;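 further: growth of GB-1 cells judged by a viability assay, IC50 marks the concentration inhibiting growth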
Description: SANGER: Inhibition of human GB-1 cell growth in a cell viability assay.

KS-1 = assay type: functional, cell-based, Homo sapiens; settings: Homo sapiens, KS-1;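 further: growth inhibition of KS-1 cells, read out with a cell viability assay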
Description: SANGER: Inhibition of human KS-1 cell growth in a cell viability assay.

K5 = assay type: functional, cell-based, Homo sapiens; settings: Homo sapiens, K5
Description: SANGER: Inhibition of human K5 cell growth in a cell viability assay.

GI-ME-N = assay type: functional, cell-based, Homo sapiens; settings: Homo sapiens, GI-ME-N;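 further: growth inhibition of human GI-ME-N cells, read out with a cell viability assay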
Description: SANGER: Inhibition of human GI-ME-N cell growth in a cell viability assay.

BE-13 = assay type: functional, cell-based, Homo sapiens; settings: Homo sapiens, BE-13;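 further: growth inhibition of human BE-13 cells, measured with a cell viability assay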
Description: SANGER: Inhibition of human BE-13 cell growth in a cell viability assay.

NB13 = assay type: functional, cell-based, Homo sapiens; settings: Homo sapiens, NB13;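 further: cell viability readout measuring growth inhibition of human NB13 cells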
Description: SANGER: Inhibition of human NB13 cell growth in a cell viability assay.

NB69 = assay type: functional, cell-based, Homo sapiens; settings: Homo sapiens, NB69;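 further: growth inhibition of NB69 cells, determined by a cell viability assay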
Description: SANGER: Inhibition of human NB69 cell growth in a cell viability assay.

NCI-H747 = assay type: functional, cell-based, Homo sapiens; settings: Homo sapiens, NCI-H747;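 further: growth inhibition of human NCI-H747 cells, read out by a cell viability assay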
Description: SANGER: Inhibition of human NCI-H747 cell growth in a cell viability assay.

GOTO = assay type: functional, cell-based, Homo sapiens; settings: Homo sapiens, GOTO;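 further: growth inhibition of GOTO cells, read out by a cell viability assay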
Description: SANGER: Inhibition of human GOTO cell growth in a cell viability assay.

D-247MG = assay type: functional, cell-based, Homo sapiens; settings: Homo sapiens, D-247MG
Description: SANGER: Inhibition of human D-247MG cell growth in a cell viability assay.

IST-MES1 = assay type: functional, cell-based, Homo sapiens; settings: Homo sapiens, IST-MES1;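 further: growth inhibition of IST-MES1 cells, measured with a cell viability assay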
Description: SANGER: Inhibition of human IST-MES1 cell growth in a cell viability assay.

CGTH-W-1 = assay type: functional, cell-based, Homo sapiens; settings: Homo sapiens, CGTH-W-1;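 further: growth inhibition of human CGTH-W-1 cells measured by cell viability assay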
Description: SANGER: Inhibition of human CGTH-W-1 cell growth in a cell viability assay.

D-502MG = assay type: functional, cell-based, Homo sapiens; settings: Homo sapiens, D-502MG
Description: SANGER: Inhibition of human D-502MG cell growth in a cell viability assay.

GI-1 = assay type: functional, cell-based, Homo sapiens; settings: Homo sapiens, GI-1;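 further: growth inhibition of human GI-1 cells, measured with a cell viability readout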
Description: SANGER: Inhibition of human GI-1 cell growth in a cell viability assay.

OS-RC-2 = assay type: functional, cell-based, Homo sapiens; settings: Homo sapiens, OS-RC-2;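 further: growth inhibition of human OS-RC-2 cells, measured by a cell viability assay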
Description: SANGER: Inhibition of human OS-RC-2 cell growth in a cell viability assay.

MOLT-16 = assay type: functional, cell-based, Homo sapiens; settings: Homo sapiens, MOLT-16;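 further: growth inhibition of human MOLT-16 cells, read out with a cell viability assay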
Description: SANGER: Inhibition of human MOLT-16 cell growth in a cell viability assay.

TK-10 = assay type: functional, cell-based, Homo sapiens; settings: Homo sapiens, TK-10;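 further: growth inhibition of TK-10 cells, read out in a cell viability assay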
Description: SANGER: Inhibition of human TK10 cell growth in a cell viability assay.

HDLM-2 = assay type: functional, cell-based, Homo sapiens; settings: Homo sapiens, HDLM-2;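 further: cell viability assay measuring suppression of HDLM-2 proliferation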
Description: SANGER: Inhibition of human HDLM-2 cell growth in a cell viability assay.

EW-11 = assay type: functional, cell-based, Homo sapiens; settings: Homo sapiens, EW-11;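 further: growth inhibition of human EW-11 cells, measured with a cell viability assay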
Description: SANGER: Inhibition of human EW-11 cell growth in a cell viability assay.

SK-NEP-1 = assay type: functional, cell-based, Homo sapiens; settings: Homo sapiens, SK-NEP-1;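 further: growth inhibition of human SK-NEP-1 cells, read out by a cell viability assay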
Description: SANGER: Inhibition of human SK-NEP-1 cell growth in a cell viability assay.

COc1cc2c(Nc3ccc(NC(=O)c4ccccc4)cc3)ncnc2cc1OCCCN1CCOCC1
IC50 (IA-LM): > 4000 nM | IC50 (Ramos-2G6-4C10): 1410 nM | IC50 (RS4-11): 554 nM | IC50 (OCUB-M): 2250 nM | IC50 (EW-3): > 4000 nM | IC50 (DU-4475): > 4000 nM | IC50 (DSH1): > 4000 nM | IC50 (TE-6): > 4000 nM | IC50 (MPP-89): > 4000 nM | IC50 (NCI-H1395): > 4000 nM | IC50 (IST-SL1): 1320 nM | IC50 (EM-2): 1420 nM | IC50 (SNU-C2B): > 4000 nM | IC50 (NCI-H526): > 4000 nM | IC50 (C2BBe1): > 4000 nM | IC50 (NCI-H1304): > 4000 nM | IC50 (U-87 MG): > 4000 nM | IC50 (TE-11): 537 nM | IC50 (MMAC-SF): > 4000 nM | IC50 (RCC10RGB): > 4000 nM | IC50 (NCI-H1355): > 4000 nM | IC50 (CAS-1): > 4000 nM | IC50 (U-266): 2840 nM | IC50 (D283 Med): > 4000 nM | IC50 (SK-MEL-1): > 4000 nM | IC50 (MSTO-211H): > 4000 nM | IC50 (GB-1): > 4000 nM | IC50 (KS-1): > 4000 nM | IC50 (K5): > 4000 nM | IC50 (GI-ME-N): > 4000 nM | IC50 (BE-13): 844 nM | IC50 (NB13): > 4000 nM | IC50 (NB69): 3230 nM | IC50 (NCI-H747): 2030 nM | IC50 (GOTO): > 4000 nM | IC50 (D-247MG): > 4000 nM | IC50 (IST-MES1): > 4000 nM | IC50 (CGTH-W-1): 2620 nM | IC50 (D-502MG): 3970 nM | IC50 (GI-1): 3260 nM | IC50 (OS-RC-2): > 4000 nM | IC50 (MOLT-16): 610 nM | IC50 (TK-10): > 4000 nM | IC50 (HDLM-2): > 4000 nM | IC50 (EW-11): > 4000 nM | IC50 (SK-NEP-1): 1360 nM

CC1(C)CNc2cc(NC(=O)c3cccnc3NCc3ccncc3)ccc21 [MOTESANIB]
IC50 (IA-LM): > 2000 nM | IC50 (Ramos-2G6-4C10): > 2000 nM | IC50 (RS4-11): > 2000 nM | IC50 (OCUB-M): > 2000 nM | IC50 (EW-3): > 2000 nM | IC50 (DU-4475): > 2000 nM | IC50 (DSH1): > 2000 nM | IC50 (TE-6): > 2000 nM | IC50 (MPP-89): > 2000 nM | IC50 (NCI-H1395): > 2000 nM | IC50 (IST-SL1): > 2000 nM | IC50 (EM-2): > 2000 nM | IC50 (SNU-C2B): > 2000 nM | IC50 (NCI-H526): > 2000 nM | IC50 (C2BBe1): > 2000 nM | IC50 (NCI-H1304): > 2000 nM | IC50 (U-87 MG): > 2000 nM | IC50 (TE-11): > 2000 nM | IC50 (MMAC-SF): > 2000 nM | IC50 (RCC10RGB): > 2000 nM | IC50 (NCI-H1355): > 2000 nM | IC50 (CAS-1): > 2000 nM | IC50 (U-266): > 2000 nM | IC50 (D283 Med): > 2000 nM | IC50 (SK-MEL-1): > 2000 nM | IC50 (MSTO-211H): > 2000 nM | IC50 (GB-1): > 2000 nM | IC50 (KS-1): > 2000 nM | IC50 (K5): > 2000 nM | IC50 (GI-ME-N): > 2000 nM | IC50 (BE-13): > 2000 nM | IC50 (NB13): > 2000 nM | IC50 (NB69): > 2000 nM | IC50 (NCI-H747): > 2000 nM | IC50 (GOTO): > 2000 nM | IC50 (D-247MG): > 2000 nM | IC50 (IST-MES1): > 2000 nM | IC50 (CGTH-W-1): 670 nM | IC50 (D-502MG): > 2000 nM | IC50 (GI-1): > 2000 nM | IC50 (OS-RC-2): > 2000 nM | IC50 (MOLT-16): > 2000 nM | IC50 (TK-10): > 2000 nM | IC50 (HDLM-2): > 2000 nM | IC50 (EW-11): > 2000 nM | IC50 (SK-NEP-1): > 2000 nM
